Experimental findings from patent publication US20250032454A1, “KDM1A INHIBITORS FOR THE TREATMENT OF DISEASE” (Imago Biosciences, Inc., priority 2021, published 2025) are described below.

Read-outs that look alike come from different tables or passages of the source. A value given as a limit tells only on which side of the number the result lay.

The test system of experiment [1] is human hematopoietic stem cells (CD34+). As to the kind of experiment: HbF induction and red cell maturation in CD34+ hematopoietic stem cells differentiated to red cells over 18 days (HbF by HPLC). The format is cell-based. The conditions noted are these: for concentration that inhibits/arrests red cell maturation: co-culture from Day 7, harvest Day 18; for concentration that induces HbF: co-culture from Day 7, harvest Day 18, total HbF by HPLC. As to the method: In an in vitro assay system, human hematopoietic stem cells (CD34^+) from a single donor are cultured to differentiate into red cells over the course of 18 days using standard culture methods with eythrogenic growth factors. Three test articles were co-cultured beginning on Day 7: the compound described in Example 11SS, a reversible inhibitor of LSD1; 4-(2-(4-aminopiperidin-1-yl)-5-(4-methoxyphenyl)-1-methyl-6-oxo-1,6-dihydropyrimidin-4-yl)-2-fluorobenzonitrile, a potent reversible inhibitor of LSD1; and 2-(((trans)-2-(4-(benzyloxy)phenyl)cyclopropyl)amino)-1-(4-methylpiperazin-1-yl) ethanone dihydrochloride (RN-1), a commercially available potent […] inhibitor of LSD1. Cells were harvested at Day 18 and total HbF was assayed by HPLC, e.g., using a C20 reverse phase column. 4-(2-(4-aminopiperidin-1-yl)-5-(4-methoxyphenyl)-1-methyl-6-oxo-1,6-dihydropyrimidin-4-yl)-2-fluorobenzonitrile and RN-1 both induce HbF at 3 nM but inhibit red cell maturation at 10 nM.

In a further experiment the target is LSD1 (Homo sapiens, UniProt O60341). As to the kind of experiment: LSD1 fluorescence coupling enzyme assay (HRP/Amplex Red, H3(1-21)K4me2 peptide), 10-dose IC50. The format is biochemical. To be noted: 10 μM histone H3(1-21)K4me2 peptide substrate, 3-fold serial dilution from 100 μM. A digest of the protocol: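 Fluorescence coupled assay: LSD1 demethylation of 10 μM H3(1-21)K4me2 peptide produces FAD-dependent H2O2, detected via HRP/Amplex Red as resorufin (Ex/Em 535/590 nm). IC50 from 10 doses, 3-fold serial dilution from 100 μM, in duplicate.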

In another experiment the test system is MV4;11 cells. Kind of experiment: Cell Titer-Glo cell growth inhibition in MV4;11 cell line (Day 5 / Day 10). The format is cell-based. To be noted: Homo sapiens. A digest of the protocol: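 Cells seeded at 3750/well and treated with a 10-point, 4-fold dose curve from 0 to 50 µM; ATP-based luminescence viability read at Day 5. A portion is reseeded into fresh compound and media for 5 more days, read at Day 10; IC50 derived from luminescence.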
A general note: Cellular ATP, detected with luciferase, serves as a proxy for viable cell number.

The mark [2] stands for this setting: MV4-11, 120 h, Day 5, read-out: Cell Titer-Glo IC50 (5 d).
Setting [3] is: MV4-11, 240 h, Day 10, read-out: Cell Titer-Glo IC50 (10 d).

Regarding `CN1CCN(C(=O)CN[C@@H]2C[C@H]2c2ccc(OCc3ccccc3)cc2)CC1.Cl.Cl` (relative stereo) [RN-1, 2-(((trans)-2-(4-(benzyloxy)phenyl)cyclopropyl)amino)-1-(4-methylpiperazin-1-yl) ethanone dihydrochloride, reference compound], in experiment [1], the “concentration that inhibits/arrests red cell maturation” value came to 10 nM and the “concentration that induces HbF” value is listed as 3 nM.

A word on the IC50: it is the concentration that gives 50% inhibition. Take `COc1ccc(-n2nc(NC[C@H]3CCC[C@H](N)C3)cc2-c2ccc(C#N)c(F)c2)cc1` [Example 11SS, 4-(3-((((1S,3S)-3-aminocyclohexyl)methyl)amino)-1-(4-methoxyphenyl)-1H-pyrazol-5-yl)-2-fluorobenzonitrile]: the IC50 at LSD1 is under 500 nM; in the experiment on MV4;11 cells (setting [2]), 500 to 1000 nM; in the experiment on MV4;11 cells (setting [3]) it was under 500 nM. For the same molecule, the “concentration that inhibits/arrests red cell maturation” value in experiment [1] came to 300 nM. In experiment [1], the “concentration that induces HbF” value is given as “a higher concentration”.

For the molecule `COc1ccc(-c2c(-c3ccc(C#N)c(F)c3)nc(N3CCC(N)CC3)n(C)c2=O)cc1` [4-(2-(4-aminopiperidin-1-yl)-5-(4-methoxyphenyl)-1-methyl-6-oxo-1,6-dihydropyrimidin-4-yl)-2-fluorobenzonitrile], in experiment [1], the “concentration that inhibits/arrests red cell maturation” value is given as 10 nM and the “concentration that induces HbF” value came out at 3 nM.

Consider `COc1ccc(-n2nc(NC[C@H]3C[C@@H](N)C3)cc2-c2ccc(C#N)c(F)c2)cc1` [Example 41, 4-(3-((((1s,3s)-3-aminocyclobutyl)methyl)amino)-1-(4-methoxyphenyl)-1H-pyrazol-5-yl)-2-fluorobenzonitrile], for which the 50% inhibitory concentration (IC50) at LSD1, with MV4;11 cells (setting [2]) and with MV4;11 cells (setting [3]) was under 500 nM in each case.

In the case of `N#Cc1ccc(-c2cc(NC[C@H]3CCC[C@H](N)C3)nn2-c2ccc(C(=O)N3CCCC3)cc2)cc1F` [Example 63, 4-(3-((((1S,3S)-3-aminocyclohexyl)methyl)amino)-1-(4-(pyrrolidine-1-carbonyl)phenyl)-1H-pyrazol-5-yl)-2-fluorobenzonitrile], the IC50 against LSD1, in the experiment with MV4;11 cells (setting [2]) and in the experiment on MV4;11 cells (setting [3]) was under 500 nM in each case.

For `Cn1ncc2cc(-n3nc(NCC45CCN(CC4)CC5)cc3-c3ccc(C#N)c(F)c3)ccc21` [Example 23, 2-fluoro-4-(1-(1-methyl-1H-indazol-5-yl)-3-((quinuclidin-4-ylmethyl)amino)-1H-pyrazol-5-yl)benzonitrile], the IC50 was under 500 nM against LSD1; under 500 nM in the experiment with MV4;11 cells (120 h, Day 5, read-out: Cell Titer-Glo IC50 (5 d)); under 500 nM in the experiment with MV4;11 cells (240 h, Day 10, read-out: Cell Titer-Glo IC50 (10 d)).

In the case of `N#Cc1ccc(-c2cc(NC[C@H]3CCC[C@H](N)C3)nn2-c2ccc(-n3ccnn3)cc2)cc1F` [Example 61, 4-(1-(4-(1H-1,2,3-triazol-1-yl)phenyl)-3-((((1S,3S)-3-aminocyclohexyl)methyl)amino)-1H-pyrazol-5-yl)-2-fluorobenzonitrile], the concentration for half-maximal inhibition (IC50) against LSD1, in the experiment with MV4;11 cells (setting [2]) and with MV4;11 cells (setting [3]) was under 500 nM in each case.

On to `N#Cc1ccc(-c2cc(NC[C@@H]3CCCNCC3)nn2-c2ccc(N3CCN(CCO)CC3)cc2)cc1F` (single isomer, unassigned) [Example 27a], for which the IC50 against LSD1 is under 500 nM; with MV4;11 cells (setting [2]), 500 to 1000 nM; with MV4;11 cells (setting [3]) it was under 500 nM.

Take `COc1ccc(-n2nc(NC[C@@H]3CCC[C@@H](N)C3)cc2-c2ccc(C#N)c(F)c2)cc1` [Example 11RR, 4-(3-((((1R,3R)-3-aminocyclohexyl)methyl)amino)-1-(4-methoxyphenyl)-1H-pyrazol-5-yl)-2-fluorobenzonitrile]: the 50% inhibitory concentration (IC50) on LSD1 was 500 to 1000 nM; with MV4;11 cells (setting [2]), 1000 to 10000 nM.

`CO[C@H]1CCN(c2ccc(-n3nc(NC[C@H]4CCC[C@H](N)C4)cc3-c3ccc(C#N)c(F)c3)c(F)c2)C1` [Example 20, 4-(3-((((1S,3S)-3-aminocyclohexyl)methyl)amino)-1-(2-fluoro-4-((S)-3-methoxypyrrolidin-1-yl)phenyl)-1H-pyrazol-5-yl)-2-fluorobenzonitrile]: the IC50 against LSD1 and with MV4;11 cells (setting [3]) was under 500 nM throughout.

For the molecule `CN[C@@H]1CCCC(CNc2cc(-c3ccc(C#N)c(F)c3)n(-c3ccc(OC)cc3)n2)C1` (single isomer, unassigned) [Example 32b], the IC50 on LSD1 and in the experiment on MV4;11 cells (setting [2]) was 1000 to 10000 nM each time.

For the molecule `Cn1nc2ccc(-n3nc(NC[C@@H]4CCC[C@@H](N)C4)cc3-c3ccc(C#N)c(F)c3)cc2c1Cl` [Example 14RR, 4-(3-((((1R,3R)-3-aminocyclohexyl)methyl)amino)-1-(3-chloro-2-methyl-2H-indazol-5-yl)-1H-pyrazol-5-yl)-2-fluorobenzonitrile], the half-maximal inhibitory concentration (IC50) against LSD1, with MV4;11 cells (setting [2]) and in the experiment on MV4;11 cells (setting [3]) was under 500 nM in each case.
